From the NIST ThermoML archive (doi:10.1021/je034102r)
± gives the expanded uncertainty stated by the source.

Details: for mass density: 101.33 kPa, Liquid, Pycnometric method

SMILES: CCCCn1cc[n+](C)c1.F[P-](F)(F)(F)(F)F [1-butyl-3-methylimidazolium hexafluorophosphate]
- mass density (298.23 K): 1365.95 ± 0.55 kg/m3
- mass density (302.89 K): 1362.05 ± 0.56 kg/m3
- mass density (307.9 K): 1357.94 ± 0.57 kg/m3
- mass density (312.67 K): 1353.99 ± 0.58 kg/m3
- mass density (317.58 K): 1349.92 ± 0.59 kg/m3
- mass density (322.33 K): 1346.02 ± 0.61 kg/m3
- mass density (327.16 K): 1342.02 ± 0.62 kg/m3
- mass density (344.23 K): 1328.03 ± 0.65 kg/m3
- mass density (348.93 K): 1324.35 ± 0.67 kg/m3
- mass density (353.47 K): 1320.69 ± 0.68 kg/m3
- Triple point temperature (Crystal): 283.51 ± 0.12 K
- Glass transition temperature (Glass, Adiabatic calorimetry): -82.5 ± 2 °C
